Consider one molecule from patent publication EP0678516B1, “Preparation of 2-bromo-5-(2-bromo-2-nitrovinyl)-furan and its use as microcide” (CENTRO DE BIOACTIVOS QUIMICOS DE LA UNIVERSIDAD CENTRAL DE …, priority 1994, dated 1995).

The test system of data set [1] is Mycoplasma bovigenitalium. The data set is described as follows: In vitro MIC. It is filed as cell-based. To be noted: Mycoplasmopsis bovigenitalium, single value, MIC50 or MIC90 not stated, read-out: Minimal Inhibitory Concentration (MIC). How it is done: The antimicrobial sensitivity was first evaluated "in vitro" using the serial dilution method for bacteria and fungi. Other growth methods in agar cultures were included for other species. The liquid and solid mediums used were Mueller-Hinton, Tryptona Soya, Sabouraud Dextrosa, Sabouraud Maltose and other mediums in accordance with the cultural demands of the micro-organisms valued.
The temperature and incubation period was adjusted to conditions and characteristics of the micro-organisms used.
The Minimal Inhibitory Concentration (MIC) was calculated in terms of MIC50 and MIC90 in µg/ml.

Another data set in a line: Oral LD50. The format is in vivo, Sprague Dawley rats. Particulars: taken orally, tragacant gum as vehicle. An excerpt:
Moreover, the anatomopathological elements and the clinical events were characterized during the experiments.

The next data set has as its system queratoconjunctivitis. The data set is described as follows: Effectiveness against bacterial eye diseases, all treated eyes. It is filed as in vivo. Particulars: 9435 animal eyes, overall. An excerpt:
The effectiveness of the active principle against bacterial eye diseases in: 9435 animal eyes affected with queratoconjunctivitis; 8093 of cattle and 1342 of other species (sheep, rabbits, dogs, horses, pigs, cats, guinea-pigs and birds).

Converted amounts (≈) assume the structure as drawn.

With `O=[N+]([O-])C(Br)=Cc1ccc(Br)o1` [Product G-1, 2-bromo-5-(2-bromo-2-nitro-vinyl)-furan], the MIC in data set [1] came to 50 µg/mL (≈ 168 µM). Moreover, the “Lethal Average Dose (LD50)” value is given as 1515.5 mg/kg of body mass in the data set “Oral LD50” (female Sprague Dawley rats) and 1857 mg/kg of body mass in the data set “Oral LD50” (male Sprague Dawley rats). Further, in the data set with queratoconjunctivitis, the clinical recuperation is listed as 89,6%.
